Tests used:
Format in all cases: in vivo
Conditions in all cases: solo application, 20 DAT
[1] = tested on: Polygonum convolvulus; experiment: Greenhouse pre-emergence herbicidal activity, POLCO
Description: (§1) The test plants have been seeded, separately for each species, in plastic containers in sandy loamy soil containing 5% of organic matter.
(§2) The containers were irrigated gently to promote germination and growth and subsequently covered with transparent plastic hoods until the plants had rooted.
(§3) The plants have been cultivated due to their individual requirements at 10-25° C. and 20-35° C. The plants were irrigated due to their necessity.
(§4) The racemic mixture (±)-2-exo-(2-Methylbenzyloxy)-1-methyl-4-isopropyl-7-oxabicyclo[2.2.1]heptane was used as herbicide A and formulated as emulsifiable concentrates with an active ingredient concentration of 50 g/l, 100 g/l or 750 g/l respectively.
(§5) Quinmerac (herbicide B.2) was used as a wettable powder (WP) formulation having an active ingredient concentration of 50%.
(§6) In the following experiments, the herbicidal activity for the individual herbicidal compositions (solo and mixture applications) was assessed 20 days after treatment (DAT).
(§7) The evaluation for the damage on undesired weeds caused by the chemical compositions was carried out using a scale from 0 to 100%, compared to the untreated control plants. Here, 0 means no damage and 100 means complete destruction of the plants.
(§8) The plants used in the greenhouse experiments belonged to the following species:
(§9) where X=effect in percent using herbicide A at an application rate a; • Y=effect in percent using herbicide B at application rate b; • E=expected effect (in %) of herbicide A+ herbicide B at application rates a+b.
(§10) The value E corresponds to the effect (plant damage or injury) which is to be expected if the activity of the individual compounds is additive. If the observed effect is higher than the value E calculated according to the Colby equation, a synergistic effect is present.
(§11) Table 1 below relates to the herbicidal activity, in greenhouse trials, of the individual actives and the combinations applied at different rates and ratios, in pre-emergence application at 20 days after treatment (DAT).

[2] = tested on: Avena fatua; experiment: Greenhouse pre-emergence herbicidal activity, AVEFA
Description: as §1, §2, §3, §4, §5, §6, §7, §8, §9, §10, §11

[3] = tested on: Abutilon theophrasti; experiment: Greenhouse pre-emergence herbicidal activity, ABUTH
Description: as §1, §2, §3, §4, §5, §6, §7, §8, §9, §10, §11

[4] = tested on: Echinochloa crus-galli; experiment: Greenhouse pre-emergence herbicidal activity, ECHCG
Description: as §1, §2, §3, §4, §5, §6, §7, §8, §9, §10, §11

[5] = tested on: Digitaria sanguinalis; experiment: Greenhouse pre-emergence herbicidal activity, DIGSA
Description: as §1, §2, §3, §4, §5, §6, §7, §8, §9, §10, §11

[6] = tested on: Anthemis arvensis; experiment: Greenhouse pre-emergence herbicidal activity, ANTAR
Description: as §1, §2, §3, §4, §5
(§12) In the following experiments, the herbicidal activity for the individual herbicidal compositions (solo and mixture applications) was assessed 20 days after treatment (DAT). […]
(§13) The value E corresponds to the effect (plant damage or injury) which is to be expected if the activity of the individual compounds is additive. If the observed effect is higher than the value E calculated according to the Colby equation, a synergistic effect is present. […]

[7] = tested on: Sorghum halepense; experiment: Greenhouse pre-emergence herbicidal activity, SORHA
Description: as §1, §2, §3, §4, §5, §6, §7, §8, §9, §10, §11

[8] = tested on: Papaver rhoeas; experiment: Greenhouse pre-emergence herbicidal activity, PAPRH
Description: as §1, §2, §3, §4, §5, §12, §13

[9] = tested on: Alopecurus myosuroides; experiment: Greenhouse pre-emergence herbicidal activity, ALOMY
Description: as §1, §2, §3, §4, §5, §12, §13

[10] = tested on: Stellaria media; experiment: Greenhouse pre-emergence herbicidal activity, STEME
Description: as §1, §2, §3, §4, §5, §6, §7, §8, §9, §10, §11

[11] = tested on: Lolium multiflorum; experiment: Greenhouse pre-emergence herbicidal activity, LOLMU
Description: as §1, §2, §3, §4, §5, §6, §7, §8, §9, §10, §11

[12] = tested on: Amaranthus retroflexus; experiment: Greenhouse pre-emergence herbicidal activity, AMARE
Description: as §1, §2, §3, §4, §5, §12, §13

[13] = tested on: Setaria viridis; experiment: Greenhouse pre-emergence herbicidal activity, SETVI
Description: as §1, §2, §3, §4, §5, §6, §7, §8, §9, §10, §11

[14] = tested on: Geranium dissectum; experiment: Greenhouse pre-emergence herbicidal activity, GERDI
Description: as §1, §2, §3, §4, §5, §6, §7, §8, §9, §10, §11

Cc1cnc2c(C(=O)O)c(Cl)ccc2c1 [quinmerac, 7-chloro-3-methylquinoline-8-carboxylic acid]
herbicidal activity ([1]; 100 g ai/ha): 0%
herbicidal activity ([1]; 200 g ai/ha): 0%
herbicidal activity ([2]; 25 g ai/ha): 0%
herbicidal activity ([2]; 50 g ai/ha): 0%
herbicidal activity ([2]; 125 g ai/ha): 0%
herbicidal activity ([2]; 250 g ai/ha): 0%
herbicidal activity ([3]; 50 g ai/ha): 0%
herbicidal activity ([3]; 200 g ai/ha): 0%
herbicidal activity ([4]; 31.25 g ai/ha): 0%
herbicidal activity ([4]; 62.5 g ai/ha): 0%
herbicidal activity ([5]; 31.25 g ai/ha): 0%
herbicidal activity ([5]; 62.5 g ai/ha): 0%
herbicidal activity ([5]; 125 g ai/ha): 0%
herbicidal activity ([5]; 250 g ai/ha): 0%
herbicidal activity ([6]; 250 g ai/ha): 0%
herbicidal activity ([7]; 62.5 g ai/ha): 0%
herbicidal activity ([7]; 200 g ai/ha): 25%
herbicidal activity ([8]; 31.25 g ai/ha): 0%
herbicidal activity ([9]; 250 g ai/ha): 0%
herbicidal activity ([10]; 50 g ai/ha): 0%
herbicidal activity ([10]; 100 g ai/ha): 0%
herbicidal activity ([11]; 200 g ai/ha): 25%
herbicidal activity ([11]; 250 g ai/ha): 0%
herbicidal activity ([12]; 250 g ai/ha): 0%
herbicidal activity ([13]; 31.25 g ai/ha): 0%
herbicidal activity ([13]; 62.5 g ai/ha): 0%
herbicidal activity ([14]; 31.25 g ai/ha): 0%
herbicidal activity ([14]; 62.5 g ai/ha): 0%
herbicidal activity ([14]; 200 g ai/ha): 0%
herbicidal activity ([14]; 250 g ai/ha): 50%

(±)-2-exo-(2-Methylbenzyloxy)-1-methyl-4-isopropyl-7-oxabicyclo[2.2.1]heptane [herbicide A]
herbicidal activity ([1]; 125 g ai/ha): 0%
herbicidal activity ([1]; 250 g ai/ha): 0%
herbicidal activity ([2]; 31.25 g ai/ha): 0%
herbicidal activity ([2]; 50 g ai/ha): 0%
herbicidal activity ([2]; 62.5 g ai/ha): 30%
herbicidal activity ([2]; 100 g ai/ha): 10%
herbicidal activity ([3]; 62.5 g ai/ha): 25%
herbicidal activity ([3]; 250 g ai/ha): 65%
herbicidal activity ([4]; 12.5 g ai/ha): 95%
herbicidal activity ([4]; 25 g ai/ha): 98%
herbicidal activity ([5]; 12.5 g ai/ha): 0%
herbicidal activity ([5]; 25 g ai/ha): 0%
herbicidal activity ([5]; 50 g ai/ha): 70%
herbicidal activity ([5]; 100 g ai/ha): 90%
herbicidal activity ([6]; 100 g ai/ha): 0%
herbicidal activity ([7]; 25 g ai/ha): 98%
herbicidal activity ([7]; 250 g ai/ha): 95%
herbicidal activity ([8]; 12.5 g ai/ha): 70%
herbicidal activity ([9]; 100 g ai/ha): 95%
herbicidal activity ([10]; 62.5 g ai/ha): 0%
herbicidal activity ([10]; 125 g ai/ha): 40%
herbicidal activity ([11]; 100 g ai/ha): 70%
herbicidal activity ([11]; 250 g ai/ha): 98%
herbicidal activity ([12]; 100 g ai/ha): 30%
herbicidal activity ([13]; 12.5 g ai/ha): 90%
herbicidal activity ([13]; 25 g ai/ha): 95%
herbicidal activity ([14]; 12.5 g ai/ha): 0%
herbicidal activity ([14]; 25 g ai/ha): 0%
herbicidal activity ([14]; 100 g ai/ha): 95%
herbicidal activity ([14]; 250 g ai/ha): 85%
